Assay results taken from ChEMBL document CHEMBL4130627, “Prodrugs of the Phosphoribosylated Forms of Hydroxypyrazinecarboxamide Pseudobase T-705 and Its De-Fluoro Analogue T-1105 as Potent Influenza Virus Inhibitors” (J Med Chem, 2018).

Columns and labels:
Test in all cases: microbe, parasite or virus in culture
Influenza B virus [1] = details: Ned/537/05, MDCK, 72 h
Influenza B virus [2] = details: Ned/537/05, MDCK, 72 h; remark: listed apart in the source
Influenza A virus [3] = details: MDCK, 72 h
Influenza A virus [4] = details: MDCK, 72 h; remark: listed apart in the source

| Compound | EC50 (Influenza B virus [1]) [µM] | EC50 (Influenza B virus [2]) [µM] | EC50 (Influenza A virus [3]) [µM] | EC50 (Influenza A virus [4]) [µM] |
| --- | --- | --- | --- | --- |
| NC(=O)c1nc(F)cnc1O | > 250 | > 250 | > 250 | > 250 |
| NC(=O)c1nccn([C@@H]2O[C@H](CO)[C@@H](O)[C@H]2O)c1=O | 20 | 19 | 51 | 53 |
| CCCCCCCCCCCCCCC(=O)Oc1ccc(COP(=O)(OCc2ccc(OC(=O)CCCC)cc2)OP(=O)(O)OC[C@H]2O[C@@H](n3cc(F)nc(C(N)=O)c3=O)[C@H](O)[C@@H]2O)cc1.CCN(CC)CC (stereo partly specified) | 3.4 | 2.8 | 8.8 | 6.6 |
| CCCCCCCCCC(=O)Oc1ccc(COP(=O)(OCc2ccc(OC(=O)CCCCCCCCC)cc2)OP(=O)(O)OP(=O)(O)OC[C@H]2O[C@@H](n3ccnc(C(N)=O)c3=O)[C@H](O)[C@@H]2O)cc1.CCN(CC)CC.CCN(CC)CC | 1.9 | 1 | 4.5 | 2.6 |
| CC(=O)O[C@@H]1[C@H](OC(C)=O)[C@@H](COP2(=O)OCc3cccc(C)c3O2)O[C@H]1n1ccnc(C(N)=O)c1=O (stereo partly specified) | > 400 | 177 | > 400 | > 400 |
| NC(=O)c1nc(Br)cnc1O | > 250 | 63 | > 250 | > 250 |
| NC(=O)c1nccnc1O | > 250 | > 250 | > 250 | > 250 |
| CCCCCCCCCC(=O)Oc1ccc(COP(=O)(OCc2ccc(OC(=O)CCCCCCCCC)cc2)OP(=O)(O)OC[C@H]2O[C@@H](n3ccnc(C(N)=O)c3=O)[C@H](O)[C@@H]2O)cc1.CCN(CC)CC | 0.55 | 0.39 | 0.97 | 1.3 |
| Cc1cccc2c1OP(=O)(OC[C@H]1O[C@@H](n3ccnc(C(N)=O)c3=O)[C@H](O)[C@@H]1O)OC2 (stereo partly specified) | 200 | 106 | 368 | 256 |
| CCCCCCCCCCCCCCC(=O)Oc1ccc(COP(=O)(OCc2ccc(OC(=O)CCCC)cc2)OP(=O)(O)OP(=O)(O)OC[C@H]2O[C@@H](n3ccnc(C(N)=O)c3=O)[C@H](O)[C@@H]2O)cc1.CCN(CC)CC.CCN(CC)CC (stereo partly specified) | 2.6 | 1.5 | 5.4 | 5.6 |
| CCCCCCCCCCCCCCC(=O)Oc1ccc(COP(=O)(OCc2ccc(OC(=O)CCCC)cc2)OP(=O)(O)OC[C@H]2O[C@@H](n3ccnc(C(N)=O)c3=O)[C@H](O)[C@@H]2O)cc1.CCN(CC)CC (stereo partly specified) | 0.66 | 0.53 | 1.4 | 1.5 |
| NC(=O)c1nc(Br)cn([C@@H]2O[C@H](CO)[C@@H](O)[C@H]2O)c1=O | > 250 | 170 | > 250 | > 250 |
| NC(=O)c1ncn([C@@H]2O[C@H](CO)[C@@H](O)[C@H]2O)n1 [RIBAVIRIN] | – | 1.5 | 5.8 | 5 |
